In patent US4816447A, “Anti-viral guanine compounds” (priority 1984, dated 1989):
Values after ≈ are worked out from the molar mass of the structure shown. Like-named read-outs stand apart in the source and are kept apart here.

Key:
[1] = system: Herpes simplex virus type 1 (Strain S); experiment: Orofacial Herpes simplex virus type 1 infection in mice, oral treatment (Table XIII); assay type: in vivo, Herpes simplex virus type 1; HRS (hairless) mice; details: for Lesion Incidence (%) / Lesion Incidence (number/Total) / Lesion Severity (scale 0 to 4): 7 days
Protocol: Twenty grams HRS (hairless) mice were infected on the abraded orofacial area with Herpes simplex virus type 1 (Strain S). […] At 7 days after initiation of infection, the extent of lesion development in the orofacial area was measured on a scale of 0 (no lesions) to 4 (massive lesions over the entire snout).

[2] = system: Varicella-Zoster virus, strain KMcC; experiment: Plaque inhibition, Varicella Zoster virus on MRC5 cells (Table V); assay type: cell-based, Varicella-Zoster virus; MRC5 (human diploid lung) cells
Vaccinia = experiment: microbe, parasite or virus in culture; assay type: cell-based, vaccinia; MRC5 (human diploid lung) cells; details: Orthopoxvirus vaccinia, MRC5, read-out: ED50, concentration required for 50% plaque inhibition
Recombinant 6-34 = experiment: Drug sensitivity of HSV-1/HSV-2 intertypic Recombinant 6-34
[3] = system: HSV-1 wild type (Schooler); experiment: Protection of mice against intraperitoneal infection with HSV-1 (Table IX); assay type: in vivo, HSV-1; mice
Protocol: 1. […] Groups of mice infected intraperitoneally with increasing doses of HSV-1 or HSV-1 (383R1) were treated twice daily subcutaneously for 4 days with either the Cyclic Monophosphate or the compound of Formula II. Mean survival times of treated mice were compared.

Recombinant 6-26 = experiment: Drug sensitivity of HSV-1/HSV-2 intertypic Recombinant 6-26
HSV-1 = experiment: In vitro activity against HSV-1 with and without added thymidine; assay type: cell-based; details: for EC50: read-out: ED50 (the source's name)
Herpes simplex virus = experiment: Plaque inhibition, Herpes simplex virus on MRC5 cells (Table V); assay type: cell-based, Herpes simplex virus; MRC5 (human diploid lung) cells
[4] = system: HSV-1 wild type Strain 17; experiment: Drug sensitivity of HSV-1 wild type Strain 17
Recombinant 6-30 = experiment: Drug sensitivity of HSV-1/HSV-2 intertypic Recombinant 6-30
[5] = system: Herpes simplex virus type 2; experiment: Tube dilution assay, viral cytopathology of HSV-2 in rabbit kidney cell cultures; details: Human alphaherpesvirus 2, in Oryctolagus cuniculus, read-out: Minimum Effective Concentration
Recombinant 6-19 = experiment: Drug sensitivity of HSV-1/HSV-2 intertypic Recombinant 6-19
[6] = system: Herpes simplex virus type I (HSV-1), strain Schooler; experiment: Treatment of Herpes simplex virus infection in mice, repeat experiment (Table III); assay type: in vivo, HSV-1; ICR/Ha mice; details: for Percent Survival: at 15 days
Protocol: Twenty gram ICR/Ha mice were injected intraperitoneally (ip) with 0.5 ml of a 10^-5 dilution of a stock preparation of Herpes simplex virus type I (HSV-1), strain Schooler. This virus challenge infected each animal with approximately 100 LD50. […] The placebo group was composed of 45 animals. All compounds were solubilized in physiological saline, pH 11.5.

[7] = system: Herpes simplex virus type 1; experiment: Intraperitoneal Herpes simplex type 1 infection in mice, oral treatment (Table XI); assay type: in vivo, Herpes simplex type 1; ICR/Ha mice; details: for Percent Survival: at 13 days
Excerpt: ICR/Ha mice were infected as described in Example 36. […] These animals served as toxicity controls.

[8] = Comparative solubilities in pH 7.2 buffer at 25°; assay type: physicochemical; details: aqueous buffer; pH 7.2 phosphate buffer, 25°
Protocol: Comparative Solubilities in pH 7.2 Buffer at 25°
Solubilities were determined by suspending an excess amount of the compound in approximately 0.15 molar phosphate buffer (pH 7.2) and shaking overnight in a water bath at 25° to give a saturated solution. The concentration of the compound in the filtered solution was calculated on the basis of spectrophotometric measurements, i.e. comparison of the ultraviolet absorbance at the λmax for the saturated solution with the absorbance value observed for a known concentration of the compound.

[9] = system: Herpes simplex virus type I (HSV-1), strain Schooler; experiment: Treatment of Herpes simplex virus infection in mice, intraperitoneal HSV-1, subcutaneous treatment (Table II); assay type: in vivo, HSV-1; ICR/Ha mice; details: for Percent Survival: at 15 days
[10] = system: human cytomegalovirus, strain AD169; experiment: Plaque inhibition, cytomegalovirus on MRC5 cells (Table V); assay type: cell-based, human cytomegalovirus; MRC5 (human diploid lung) cells

## Nc1nc2c(ncn2COC(CO)CO)c(=O)[nH]1 [Compound of Formula II, 9-(1,3-Dihydroxy-2-propoxymethyl)guanine]
HSV-2 TS6
  sensitivity of HSV-2 Ts6: resistant
[1]; 0.2 mg/kg/day oral
  Lesion Incidence (%): 100%
  Lesion Incidence (number/Total): 7/7
  Lesion Severity (scale 0 to 4): 2.93
[1]; 0.8 mg/kg/day oral
  Lesion Incidence (%): 100%
  Lesion Incidence (number/Total): 7/7
  Lesion Severity (scale 0 to 4): 2.93
[1]; 3.1 mg/kg/day oral
  Lesion Incidence (%): 67%
  Lesion Incidence (number/Total): 6/9
  Lesion Severity (scale 0 to 4): 1.00
[1]; 12.5 mg/kg/day oral
  Lesion Incidence (%): 20%
  Lesion Incidence (number/Total): 2/10
  Lesion Severity (scale 0 to 4): 0.45
[1]; 50 mg/kg/day oral
  Lesion Incidence (%): 10%
  Lesion Incidence (number/Total): 1/10
  Lesion Severity (scale 0 to 4): 0.05
[1]; 50 and 12.5 mg/kg
  incidence of lesions vs placebo: statistically significant protection
[1]; all concentrations used
  extent of lesion development vs placebo: statistically significant protection
[1]; statistically significant
  relative potency to acycloguanosine: 6.9
[2]; Human alphaherpesvirus 3, read-out: ED50, concentration required for 50% plaque inhibition, Varicella Zoster virus, MRC5
  EC50: 3 to 6 µg/mL
Vaccinia
  EC50: 50 to 100 µg/mL
Recombinant 6-34; read-out: ED50
  EC50: 0.07 µg/mL
[3]; HSV-1, s.c. twice daily, 4 days
  Mean Survival Time (± SD): 12.55 (0.88)
[3]; HSV-1 or HSV-1 (383R1)
  protective efficacy over a 10^6 -fold virus challenge range: no significant difference in protective efficacy
Recombinant 6-26; read-out: ED50
  EC50: 0.05 µg/mL
HSV-1; 20 μg thymidine/ml
  reduction of antiviral activity by thymidine: greater than 15 fold
HSV-1; Human alphaherpesvirus 1, absence of thymidine
  EC50: 0.8 to 1.6 µg/mL
HSV-1; Human alphaherpesvirus 1, presence of thymidine (20 μg/ml)
  EC50: 25 µg/mL
Herpes simplex virus; read-out: ED50, concentration required for 50% plaque inhibition, Herpes simplex virus, MRC5
  EC50: 0.2 µg/mL
[4]; Human alphaherpesvirus 1, read-out: ED50
  EC50: 0.34 µg/mL
Recombinant 6-30; read-out: ED50
  EC50: 0.08 µg/mL
[5]
  minimal effective concentration: 1 to 3 µg/mL
Recombinant 6-19; read-out: ED50
  EC50: 0.1 µg/mL
[6]; 0.2 mg/kg/day s.c.
  Avg. Survival Time: 9.0 days
  Percent Survival: 26%
[6]; 0.8 mg/kg/day s.c.
  Avg. Survival Time: 9.8 days
  Percent Survival: 40%
[6]; 3.1 mg/kg/day s.c.
  Avg. Survival Time: 11.8 days
  Percent Survival: 46%
[6]; 12.5 mg/kg/day s.c.
  Avg. Survival Time: 17.2 days
  Percent Survival: 93%
[6]; 50 mg/kg/day s.c.
  Avg. Survival Time: 19.5 days
  Percent Survival: 100%
[6]; combined results of both mouse experiments
  calculated average relative potency to acycloguanosine (95% CI): 287.0
[7]; 0.2 mg/kg/day oral
  Avg. Survival Time: 6.8 days
  Percent Survival: 0%
[7]; 0.8 mg/kg/day oral
  Avg. Survival Time: 8.5 days
  Percent Survival: 20%
[7]; 3.1 mg/kg/day oral
  Avg. Survival Time: 11.7 days
  Percent Survival: 50%
[7]; 12.5 mg/kg/day oral
  Avg. Survival Time: 13.9 days
  Percent Survival: 80%
[7]; 50 mg/kg/day oral
  Avg. Survival Time: 16.9 days
  Percent Survival: 100%
[7]; 50, 12.5, 3.1 and 0.8 mg/kg daily
  extension of survival time vs placebo: statistically significant extension of survival time
[7]; 50 and 12.5 mg/kg groups
  survival vs placebo: statistically significantly longer
[7]; oral, twice daily for 7 days
  overt toxicity, final weight of test animals: no evidence of overt toxicity
[7]; statistically significant
  relative potency to acycloguanosine: 50.3
[8]
  solubility: 2800 µg/mL
[9]; 3.1 mg/kg/day s.c.
  Avg. Survival Time: 12.5 days
  Percent Survival: 53%
[9]; 12.5 mg/kg/day s.c.
  Avg. Survival Time: 14.1 days
  Percent Survival: 73%
[9]; 50 mg/kg/day s.c.
  Avg. Survival Time: 19.1 days
  Percent Survival: 100%
[10]
  more active than acyclovir: approximately 10 fold
[10]; Human betaherpesvirus 5, AD169, read-out: ED50, concentration required for 50% plaque inhibition, Cytomegalovirus, MRC5
  EC50: 0.8 µg/mL

## Nc1nc2c(ncn2COCCO)c(=O)[nH]1 [Acycloguanosine, 9-(2-hydroxyethoxymethyl)guanine, reference compound]
HSV-2 TS6; HSV-2 TS6
  Sensitivity (S) or Resistance (R): S
HSV-2 TS6
  sensitivity of HSV-2 Ts6: sensitive
[1]; 0.8 mg/kg/day oral
  Lesion Incidence (%): 88%
  Lesion Incidence (number/Total): 7/8
  Lesion Severity (scale 0 to 4): 3.11
[1]; 3.1 mg/kg/day oral
  Lesion Incidence (%): 100%
  Lesion Incidence (number/Total): 6/6
  Lesion Severity (scale 0 to 4): 3.25
[1]; 12.5 mg/kg/day oral
  Lesion Incidence (%): 100%
  Lesion Incidence (number/Total): 6/6
  Lesion Severity (scale 0 to 4): 2.67
[1]; 50 mg/kg/day oral
  Lesion Incidence (%): 14%
  Lesion Incidence (number/Total): 1/7
[1]; only at 50 mg/kg
  incidence of lesions vs placebo: statistically significant protection
[1]; only at 50 and 12.5 mg/kg
  extent of lesion development vs placebo: statistically significant protection
[2]; Human alphaherpesvirus 3, MRC5, read-out: ED50, concentration required for 50% plaque inhibition
  EC50: 3 to 6 µg/mL (≈ 13.3 to 26.6 µM)
Vaccinia
  EC50: > 100 µg/mL
Recombinant 6-34; Recombinant 6-34
  Sensitivity (S) or Resistance (R): R
Recombinant 6-26; Recombinant 6-26
  Sensitivity (S) or Resistance (R): S
Herpes simplex virus; MRC5, read-out: ED50, concentration required for 50% plaque inhibition
  EC50: 0.2 to 0.4 µg/mL (≈ 0.888 to 1.78 µM)
[4]; HSV-1 wild type Strain 17
  Sensitivity (S) or Resistance (R): S
Recombinant 6-30; Recombinant 6-30
  Sensitivity (S) or Resistance (R): S
[5]
  minimal effective concentration: 1 to 3 µg/mL
Recombinant 6-19; Recombinant 6-19
  Sensitivity (S) or Resistance (R): R
[6]; 12.5 mg/kg/day s.c.
  Avg. Survival Time: 7.0 days
  Percent Survival: 6%
[6]; 50 mg/kg/day s.c.
  Avg. Survival Time: 7.8 days
  Percent Survival: 0%
[6]; 100 mg/kg/day s.c.
  Avg. Survival Time: 7.8 days
  Percent Survival: 10%
[7]; 3.1 mg/kg/day oral
  Avg. Survival Time: 6.3 days
  Percent Survival: 0%
[7]; 12.5 mg/kg/day oral
  Avg. Survival Time: 6.6 days
  Percent Survival: 0%
[7]; 50 mg/kg/day oral
  Avg. Survival Time: 8.2 days
  Percent Survival: 20%
[7]; 100 mg/kg/day oral
  Avg. Survival Time: 11.4 days
  Percent Survival: 60%
[7]; all treated groups
  survival vs placebo: none of the acycloquanosine-treated groups showed enhanced survival
[7]; only at 100 and 50 mg/kg daily
  extension of survival time vs placebo: statistically significant extension of survival time
[8]
  solubility: 1300 to 1500 µg/mL (≈ 5770 to 6660 µM)
[9]; 3.1 mg/kg/day s.c.
  Avg. Survival Time: 6.4 days
  Percent Survival: 6%
[9]; 12.5 mg/kg/day s.c.
  Avg. Survival Time: 6.2 days
  Percent Survival: 6%
[9]; 50 mg/kg/day s.c.
  Avg. Survival Time: 7.7 days
  Percent Survival: 0%
[10]; Human betaherpesvirus 5, AD169, MRC5, read-out: ED50, concentration required for 50% plaque inhibition
  EC50: 25 µg/mL (≈ 111 µM)
